Test results reported in EP4752152A1, “STEROID COMPOUND, AND PREPARATION METHOD THEREFOR AND USE THEREOF” (Cholesgen (Shanghai) Co.Ltd., priority 2023, dated 2025).
Converted amounts (≈) assume the structure as drawn.

Legend:
[1] = Solubility in fasted-state simulated intestinal fluid (FaSSIF); format: physicochemical; details: FaSSIF pH 6.5, 300 µM sample solution, room temperature
Procedure: Compound powder was dissolved in DMSO to prepare a 10.0 mM stock solution for later use. 0.021 g NaOH, 0.198 g NaH2PO4, and 0.309 g NaCl were weighed and added to 50.0 mL of ultrapure water. After thorough mixing, the pH was adjusted to 6.5 using HCl or NaOH. Then, 0.112 g of FaSSIF powder was added. After complete dissolution, the solution was allowed to stand at room temperature for 2 hours for later use. A certain volume of the compound stock solution was added to a certain volume of FaSSIF to prepare a 300 µM sample solution, which was mixed at room temperature under 1000 rpm for 1 hour. After 1 hour, the sample was centrifuged, and a certain volume of supernatant was taken. The termination solution was added to precipitate the sample, which was then thoroughly mixed and centrifuged for 20 minutes. The supernatant was then taken again, diluted with dilution solution, and then analyzed by liquid chromatography-tandem mass spectrometry (LC-MS/MS). The concentration of the test compound in the samples was quantitatively determined using LC-MS/MS. Table 3: FaSSIF solubility results of compounds from some examples

[2] = tested on: Fatty Acid Synthase (FASN) gene; assay: Inhibition of FASN gene expression (qPCR) in Huh-7 cells; format: cell-based, human; details: Homo sapiens, Huh-7, 16 h, Huh-7 cells, starvation medium, 16 hours, qPCR; class symbols; read-out: FASN IC50
How it was run: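 IC50 derived by four-parameter fit of FASN expression inhibition versus DMSO, measured by RT-qPCR. Compound exposure lasted 16 h at five 3-fold concentrations from 3000 nM, applied to Huh-7 cells in sterol-depleting medium with 5% LPDS, 2 µM lovastatin and 10 µM mevalonate.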

[3] = tested on: SREBP pathway; assay: SREBP luciferase reporter gene system (SRE-luciferase assay); format: cell-based, human; details: Huh-7/SRE-luc cells, sterol-deficient medium, 0.01-10 µM
How it was run: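 Readout was SRE-driven luciferase normalised to GFP fluorescence in lysates of stably transfected Huh-7/SRE-luc hepatoma cells. Compounds (0.01, 0.03, 0.1, 0.3, 1.0, 3.0, 10 µM; DMSO control) were applied for 16 h in sterol-depleted medium with 2 µM lovastatin and 10 µM mevalonate; IC50 from variable-slope fit.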

[4] = FaSSIF, pH 6.5, fassif, kinetic from dmso stock

Structure (SMILES) | solubility at 1 h [1, 4] | IC50 [2] | IC50 ([3]; 16 hours) | IC50 ([3]; Homo sapiens, Huh-7, 16 h) | solubility at 1 h ([1]; 60 min)
COc1nc(F)ccc1C(O)CCC[C@@H](C)[C@H]1CC[C@H]2[C@H]3[C@H](CC[C@]12C)[C@@]1(C)CC[C@H](O)[C@H](O)[C@@H]1CC3(F)F (single isomer, unassigned) [Compound 188, (1R,3aS,3bS,5aR,6R,7S,9aR,9bS,11aR)-4,4-difluoro-1-[(2R,6S)-6-(6-fluoro-2-methoxypyridin-3-yl)-6-hydroxyhexan-2-yl]-9a,11a-dimethylhexadecahydro-1H-cyclopenta[1,2-a]phenanthrene-6,7-diol or (1R,3aS,3bS,5aR,6R,7S,9aR,9bS,11aR)-4,4-difluoro-1-[(2R,6R)-6-(6-fluoro-2-methoxypyridin-3-yl)-6-hydroxyhexan-2-yl]-9a,11a-dimethylhexadecahydro-1H-cyclopenta[1,2-a]phenanthrene-6,7-diol] | 139 µM (≈ 76.9 µg/mL) | < 200 nM | 0.142 µM |  | 
COc1cc(OC)c([C@@H](O)CCC[C@@H](C)[C@H]2CC[C@H]3[C@H]4[C@H](CC[C@]23C)[C@@]2(C)CC[C@H](O)[C@H](O)[C@@H]2CC4(F)F)c(F)n1 (single isomer, unassigned) [Compound 236] | 305 µM (≈ 178 µg/mL) |  |  | 0.079 µM | 
COc1cc(F)c([C@H](O)CCC[C@@H](C)[C@H]2CC[C@H]3[C@H]4[C@H](CC[C@]23C)[C@@]2(C)CC[C@H](O)[C@H](O)[C@@H]2CC4(F)F)c(F)n1 (single isomer, unassigned) [Compound 240] | 146 µM (≈ 83.4 µg/mL) |  |  | 0.042 µM | 
C[C@H](CCCC(O)c1cccc2c1cnn2C)[C@H]1CC[C@H]2[C@H]3[C@H](CC[C@]12C)[C@@]1(C)CC[C@H](O)[C@H](O)[C@@H]1CC3(F)F (single isomer, unassigned) [Compound 249, (1R,3aS,3bS,5aR,6R,7S,9aR,9bS,11aR)-4,4-difluoro-1-[(2R,6S)-6-hydroxy-6-(1-methylindazol-4-yl)hexan-2-yl]-9a,11a-dimethylhexadecahydro-1H-cyclopenta[1,2-a]phenanthrene-6,7-diol or (1R,3aS,3bS,5aR,6R,7S,9aR,9bS,11aR)-4,4-difluoro-1-[(2R,6R)-6-hydroxy-6-(1-methylindazol-4-yl)hexan-2-yl]-9a,11a-dimethylhexadecahydro-1H-cyclopenta[1,2-a]phenanthrene-6,7-diol] | 38.6 µM (≈ 21.6 µg/mL) |  |  | 0.058 µM | 
C[C@H](CCCC(O)c1cccc2c1cnn2C)[C@H]1CC[C@H]2[C@H]3[C@H](CC[C@]12C)[C@@]1(C)CC[C@H](O)[C@H](O)[C@@H]1CC3(F)F (single isomer, unassigned) [Compound 250, (1R,3aS,3bS,5aR,6R,7S,9aR,9bS,11aR)-4,4-difluoro-1-[(2R,6R)-6-hydroxy-6-(1-methylindazol-4-yl)hexan-2-yl]-9a,11a-dimethylhexadecahydro-1H-cyclopenta[1,2-a]phenanthrene-6,7-diol or (1R,3aS,3bS,5aR,6R,7S,9aR,9bS,11aR)-4,4-difluoro-1-[(2R,6S)-6-hydroxy-6-(1-methylindazol-4-yl)hexan-2-yl]-9a,11a-dimethylhexadecahydro-1H-cyclopenta[1,2-a]phenanthrene-6,7-diol] |  |  | 0.066 µM |  | 32.95 µM (≈ 18.4 µg/mL)
C[C@H](CCCC(O)c1cccc2ncn(C)c12)[C@H]1CC[C@H]2[C@H]3[C@H](CC[C@]12C)[C@@]1(C)CC[C@H](O)[C@H](O)[C@@H]1CC3(F)F (single isomer, unassigned) [Compound 298, (1R,3aS,3bS,5aR,6R,7S,9aR,9bS,11aR)-4,4-difluoro-1-[(2R,6S)-6-hydroxy-6-(3-methylbenzo[d]imidazol-4-yl)hexan-2-yl]-9a,11a-dimethylhexadecahydro-1H-cyclopenta[1,2-a]phenanthrene-6,7-diol or (1R,3aS,3bS,5aR,6R,7S,9aR,9bS,11aR)-4,4-difluoro-1-[(2R,6R)-6-hydroxy-6-(3-methylbenzo[d]imidazol-4-yl)hexan-2-yl]-9a,11a-dimethylhexadecahydro-1H-cyclopenta[1,2-a]phenanthrene-6,7-diol] | 18.2 µM (≈ 10.2 µg/mL) |  | 0.093 µM |  | 
C[C@H](CCCC(O)c1ccccc1F)[C@H]1CC[C@H]2[C@H]3[C@H](CC[C@]12C)[C@@]1(C)CC[C@H](O)[C@H](O)[C@@H]1CC3(F)F (stereo partly drawn) [Compound 3, (1R,3aS,3bS,5aR,6R,7S,9aR,9bS,11aR)-4,4-difluoro-1-[(2R)-6-(2-fluorophenyl)-6-hydroxyhexan-2-yl]-9a,11a-dimethylhexadecahydro-1H-cyclopenta[1,2-a]phenanthrene-6,7-diol] | 247 µM (≈ 129 µg/mL) |  |  | 0.03 µM | 
C[C@H](CCCC(O)c1c(F)cc(F)nc1F)[C@H]1CC[C@H]2[C@H]3[C@H](CC[C@]12C)[C@@]1(C)CC[C@H](O)[C@H](O)[C@@H]1CC3(F)F (stereo partly drawn) [Compound 165, (1R,3aS,3bS,5aR,6R,7S,9aR,9bS,11aR)-4,4-difluoro-1-[(2R)-6-hydroxy-6-(2,4,6-trifluoropyridin-3-yl)hexan-2-yl]-9a,11a-dimethylhexadecahydro-1H-cyclopenta[1,2-a]phenanthrene-6,7-diol] | 87.4 µM (≈ 48.9 µg/mL) |  |  | 0.099 µM | 
COc1nc(F)cnc1C(O)CCC[C@@H](C)[C@H]1CC[C@H]2[C@H]3[C@H](CC[C@]12C)[C@@]1(C)CC[C@H](O)[C@H](O)[C@@H]1CC3(F)F (stereo partly drawn) [Compound 175, (1R,3aS,3bS,5aR,6R,7S,9aR,9bS,11aR)-4,4-difluoro-1-[(2R)-6-(5-fluoro-3-methoxypyrazin-2-yl)-6-hydroxyhexan-2-yl]-9a,11a-dimethylhexadecahydro-1H-cyclopenta[1,2-a]phenanthrene-6,7-diol] | 280 µM (≈ 155 µg/mL) |  |  | 0.285 µM | 
COc1cc(F)c(C(O)CCC[C@@H](C)[C@H]2CC[C@H]3[C@H]4[C@H](CC[C@]23C)[C@@]2(C)CC[C@H](O)[C@H](O)[C@@H]2CC4(F)F)c(F)c1 (stereo partly shown) [Compound 197] | 328 µM (≈ 187 µg/mL) |  |  | 0.073 µM | 
C[C@H](CCCC(O)c1nccn1C)[C@H]1CC[C@H]2[C@H]3[C@H](CC[C@]12C)[C@@]1(C)CC[C@H](O)[C@H](O)[C@@H]1CC3(F)F (stereo partly drawn) [Compound 223, (1R,3aS,3bS,5aR,6R,7 S,9aR,9bS,11aR)-4,4-Difluoro-1-[(2R)-6-hydroxy-6-(3-methylimidazol-2-yl)hexan-2-yl]-9a,11a-dimethylhexadecahydro-1H-cyclopenta[1,2-a]phenanthrene-6,7-diol] | 305 µM (≈ 155 µg/mL) |  |  | 0.093 µM | 
C[C@H](CCCC(O)c1cccc2cn[nH]c12)[C@H]1CC[C@H]2[C@H]3[C@H](CC[C@]12C)[C@@]1(C)CC[C@H](O)[C@H](O)[C@@H]1CC3(F)F (stereo partly drawn) [Compound 224, (1R,3aS,3bS,5aR,6R,7 S,9aR,9bS,11aR)-4,4-Difluoro-1-[(2R)-6-hydroxy-6-(1H-indazol-7-yl)hexan-2-yl]-9a,11a-dimethylhexadecahydro-1H-cyclopenta[1,2-a]phenanthrene-6,7-diol] | 48 µM (≈ 26.1 µg/mL) |  |  | 0.055 µM | 
C[C@H](CCCC(O)c1nccc2c1OC(F)(F)O2)[C@H]1CC[C@H]2[C@H]3[C@H](CC[C@]12C)[C@@]1(C)CC[C@H](O)[C@H](O)[C@@H]1CC3(F)F (stereo partly drawn) [Compound 296, (1R,3aS,3bS,5aR,6R,7 S,9aR,9bS,11aR)-1-[(2R)-6-(2,2-Difluoro[1,3]dioxolo[4,5-c]pyridin-4-yl)-6-hydroxyhexan-2-yl]-4,4-difluoro-9a,11a-dimethylhexadecahydro-1H-cyclopenta[1,2-a]phenanthrene-6,7-diol] | 69.3 µM (≈ 40.6 µg/mL) |  |  | 0.226 µM | 
C[C@H](CCCC(O)c1cncc2c1OC(F)(F)O2)[C@H]1CC[C@H]2[C@H]3[C@H](CC[C@]12C)[C@@]1(C)CC[C@H](O)[C@H](O)[C@@H]1CC3(F)F (stereo partly drawn) [Compound 297, (1R,3aS,3bS,5aR,6R,7 S,9aR,9bS,11aR)-1-[(2R)-6-(2,2-Difluoro[1,3]dioxolo[4,5-c]pyridin-7-yl)-6-hydroxyhexan-2-yl]-4,4-difluoro-9a,11a-dimethylhexadecahydro-1H-cyclopenta[1,2-a]phenanthrene-6,7-diol] | 19.5 µM (≈ 11.4 µg/mL) |  |  | 0.197 µM | 
C[C@H](CCCC(O)c1ccc(F)nc1OC1CC1)[C@H]1CC[C@H]2[C@H]3[C@H](CC[C@]12C)[C@@]1(C)CC[C@H](O)[C@H](O)[C@@H]1CC3(F)F (stereo partly drawn) [Compound 328, (1R,3aS,3bS,5aR,6R,7S,9aR,9bS,11aR)-1-[(2R)-6-[2-(cyclopropyloxy)-6-fluoropyridin-3-yl]-6-hydroxyhexan-2-yl]-4,4-difluoro-9a,11a-dimethylhexadecahydro-1H-cyclopenta[1,2-a]phenanthrene-6,7-diol] | 263 µM (≈ 152 µg/mL) |  |  | 0.043 µM | 
